The text below walks through data of PubChem BioAssay (NCI).

Molecules are shown by their SMILES. “And” between values parts separate entries of the source, which are not always exact repeats. Equal entries are not always repeated.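 Where inhibition never reached the appropriate level, the endpoint shown equals the highest concentration tested. Otherwise, values were interpolated linearly from a five-concentration, 48-hour dose response in 96-well plates. The concentration for 50% growth inhibition is given as GI50. TGI denotes the concentration required for complete inhibition of growth.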

Some test systems named below: ACHN renal; HOP-62 NSCLC; MALME-3M melanoma; RPMI-8226 leukemia; SN12C renal; T-47D breast; M14 melanoma; SK-MEL-28 melanoma.
What all share (test): NCI tumour cell line growth inhibition, 48 h

Regarding `COc1cc2c3c(n(CCCNCCN4CCOCC4)c(=O)c2cc1OC)-c1cc2c(cc1C3=O)OCO2`, the TGI in the assay with ACHN renal is 0.658 µM and 2.62 µM; in the assay on HOP-62 NSCLC, 0.79 µM and 1.93 µM; with MALME-3M melanoma, 14.5 µM and 27.3 µM; in the assay on RPMI-8226 leukemia, 1.14 µM and 0.681 µM; in the assay with SN12C renal it was 6.5 µM; in the assay on T-47D breast, 50 µM and 70.2 µM. Besides, the GI50 in the assay on MALME-3M melanoma was 6.5 µM and 8.31 µM; in the assay on RPMI-8226 leukemia it was 0.122 µM and 0.0199 µM; in the assay on SN12C renal, 1.31 µM; in the assay on T-47D breast, 2.56 µM and 23.5 µM.
For the compound `CN(C)CCCC(=O)Nc1ccc(Cn2nnc3c2C(=O)c2nnn(Cc4ccc(NC(=O)CCCN(C)C)cc4)c2C3=O)cc1`, the GI50 in the assay on ACHN renal was 38.9 µM; with HOP-62 NSCLC, 17.2 µM; with M14 melanoma it was 5.97 µM; in the assay on MALME-3M melanoma, 1.39 µM; with RPMI-8226 leukemia, 3.17 µM; in the assay on SK-MEL-28 melanoma it was 4.55 µM. In addition, in the assay on SN12C renal, the GI50 was 1.96 µM. For the same compound, the TGI with ACHN renal is over 100 µM; in the assay on HOP-62 NSCLC it was 32.8 µM; with M14 melanoma it was 24.3 µM; in the assay on MALME-3M melanoma, 2.94 µM; with RPMI-8226 leukemia, 15.9 µM; with SK-MEL-28 melanoma it was 20.3 µM. Also, the TGI in the assay with SN12C renal came to 4 µM.
On to `O=[N+]([O-])c1ccc(O)c2ncccc12`, for which the GI50 with ACHN renal was 42.5 µM and 4.81 µM; with MALME-3M melanoma, 3.55 µM; in the assay on T-47D breast it was 23 µM and 2.38 µM. Besides, the TGI is > 100 µM and 35.8 µM in the assay with ACHN renal; > 100 µM and 10.5 µM with M14 melanoma; 17.4 µM in the assay with MALME-3M melanoma; over 100 µM in the assay with RPMI-8226 leukemia; > 100 µM and 24.7 µM with SK-MEL-28 melanoma; > 100 µM and 58.1 µM in the assay on SN12C renal.
On to `C=CCNc1cccc2c1C(=O)c1ccccc1C2(O)CC=C` (stereo unspecified), for which the GI50 in the assay with ACHN renal was 28.5 µM; in the assay on HOP-62 NSCLC, 24.2 µM; with M14 melanoma, 19 µM; in the assay with RPMI-8226 leukemia, 17.4 µM; in the assay with SK-MEL-28 melanoma, 27 µM; in the assay with SN12C renal, 20.2 µM. For the same compound, the GI50 in the assay on T-47D breast was 32.2 µM. Also, the TGI with ACHN renal was 65.3 µM; in the assay on HOP-62 NSCLC, 61.2 µM; with M14 melanoma, 41 µM; in the assay on RPMI-8226 leukemia it was 44.6 µM; with SK-MEL-28 melanoma, 93.3 µM; in the assay on SN12C renal it was 43 µM. Besides, in the assay on T-47D breast, the TGI was over 100 µM.
Take `COc1cccc(C2C(C#N)=C(N)Oc3cc(OC)ccc32)c1` (stereo unspecified): the GI50 with ACHN renal was 0.138 µM; with HOP-62 NSCLC it was 0.0418 µM; in the assay on M14 melanoma it was 0.0271 µM; in the assay with RPMI-8226 leukemia it was 0.0372 µM; with SK-MEL-28 melanoma it was 0.0577 µM; with SN12C renal, 0.0773 µM. The GI50 in the assay with T-47D breast is 0.0437 µM. In addition, the TGI with ACHN renal is over 100 µM; with HOP-62 NSCLC, over 76.6 µM; with M14 melanoma, over 100 µM; in the assay on RPMI-8226 leukemia, 23.7 µM; with SK-MEL-28 melanoma, over 100 µM; in the assay with SN12C renal, over 41.8 µM. Also, the TGI with T-47D breast was found to be 63.3 µM.
`C1C[OH+]CC[OH+]CC[OH+]CC[OH+]CC[OH+]CC[OH+]1.[Cl-].[Ta+5]`: the GI50 in the assay on ACHN renal, with HOP-62 NSCLC, with M14 melanoma, with MALME-3M melanoma, in the assay on RPMI-8226 leukemia and with SK-MEL-28 melanoma was over 100 µM in each case. The GI50 in the assay with SN12C renal was over 100 µM. Further, the TGI in the assay on ACHN renal, in the assay on HOP-62 NSCLC, in the assay with M14 melanoma, in the assay on MALME-3M melanoma, in the assay with RPMI-8226 leukemia and with SK-MEL-28 melanoma was over 100 µM each time. In the assay with SN12C renal, this compound showed a TGI of over 100 µM.
In the case of `C#CC#CC#CC#CC#CC#CC#CC#CCC1OC[C@H](COC(=O)O[C@@H](C(=O)O[C@H]2C[C@@]3(O)[C@@H](OC(=O)c4ccccc4)[C@@H]4[C@]5(OC(C)=O)CO[C@@H]5C[C@H](O)[C@@]4(C)C(=O)[C@H](OC(C)=O)C(=C2C)C3(C)C)[C@@H](NC(=O)c2ccccc2)c2ccccc2)O1` (stereo partly specified), the GI50 was over 33.3 µM with ACHN renal; 1.37 µM in the assay on HOP-62 NSCLC; 0.386 µM with M14 melanoma; 1.16 µM in the assay with MALME-3M melanoma; 0.114 µM with RPMI-8226 leukemia; 1.34 µM in the assay with SN12C renal. Besides, the GI50 in the assay with T-47D breast is 0.516 µM. Besides, the TGI in the assay on ACHN renal was over 33.3 µM; in the assay with HOP-62 NSCLC it was over 33.3 µM; in the assay on M14 melanoma, 3.59 µM; in the assay with MALME-3M melanoma, over 33.3 µM; in the assay on RPMI-8226 leukemia it was over 33.3 µM; in the assay with SN12C renal, over 33.3 µM. This compound also returned a TGI in the assay on T-47D breast of over 33.3 µM.
In the case of `C=C1C(=O)O[C@H]2[C@H]1CC(=O)/C(C)=C\CC[C@@]1(C)O[C@@H]21`, the GI50 in the assay with ACHN renal is 0.822 µg/mL; in the assay with HOP-62 NSCLC, 4.31 µg/mL; in the assay with M14 melanoma, 3.38 µg/mL; in the assay on RPMI-8226 leukemia, 0.514 µg/mL; in the assay on SK-MEL-28 melanoma, 1.51 µg/mL; in the assay on SN12C renal it was 4.17 µg/mL. The GI50 in the assay with T-47D breast is 2.57 µg/mL. The TGI with ACHN renal turned out to be 2.38 µg/mL; with HOP-62 NSCLC, 8.45 µg/mL; in the assay on M14 melanoma, 11.8 µg/mL; in the assay with RPMI-8226 leukemia it was 1.3 µg/mL; in the assay with SK-MEL-28 melanoma, 6.11 µg/mL; in the assay with SN12C renal, 8.4 µg/mL. In addition, the TGI in the assay on T-47D breast turned out to be 9.53 µg/mL.
Turning to `COC(=O)[C@H](Cc1ccccc1)NC(=O)[C@@H](OC)[C@@H]1Cc2cc3cc(OC4CC(OC5CC(O)C(O)C(C)O5)C(O)C(C)O4)c(C)c(O)c3c(O)c2C(=O)[C@H]1OC1CC(OC2CC(OC3CC(C)(O)C(O)C(C)O3)C(O)C(C)O2)C(O)C(C)O1` (stereo partly specified), the GI50 is 0.0147 µM in the assay with HOP-62 NSCLC; 0.0267 µM with M14 melanoma; 0.00693 µM with MALME-3M melanoma; 0.0109 µM with RPMI-8226 leukemia; 0.00578 µM in the assay on SK-MEL-28 melanoma; 0.00991 µM in the assay with SN12C renal. The GI50 with T-47D breast is 0.019 µM. For the same compound, the TGI was 11.4 µM in the assay on HOP-62 NSCLC; 0.105 µM in the assay with M14 melanoma; 0.0287 µM with MALME-3M melanoma; 0.073 µM with RPMI-8226 leukemia; 0.0368 µM in the assay with SK-MEL-28 melanoma; over 14.3 µM with SN12C renal. Further, the TGI with T-47D breast is over 14.3 µM.
For the compound `COc1ccc2sc3c(NCCCNCCO)nc4ccccc4c3c(=O)c2c1`, the GI50 with ACHN renal is 1.63 µM; with HOP-62 NSCLC, 1.59 µM; with M14 melanoma, 1.82 µM; with MALME-3M melanoma, 1.69 µM; in the assay on RPMI-8226 leukemia, 1.71 µM; in the assay with SK-MEL-28 melanoma, 1.8 µM. For the same compound, the GI50 with SN12C renal was 1.6 µM. The TGI in the assay with ACHN renal was determined as 2.99 µM; in the assay with HOP-62 NSCLC it was 3.26 µM; in the assay on M14 melanoma it was 3.48 µM; in the assay on MALME-3M melanoma, 3.26 µM; in the assay on RPMI-8226 leukemia it was 3.86 µM; in the assay on SK-MEL-28 melanoma it was 3.27 µM. In the assay with SN12C renal, the TGI was 3.12 µM.
